Reference: patent publication US11109593B2, “Isoxazolin-5-one derivative and herbicide containing same as active ingredient” (HOKKO CHEMICAL INDUSTRY CO., LTD., priority 2017, dated 2021)

Assays:
Type in all cases: in vivo
Echinochloa crus-galli [1] = experiment: Test Example 2: herbicidal effect test by treatment during growing period in paddy rice cultivation (seven days after seeding); settings: 120 g/10a active ingredient, assessed 14 days after treatment, dry weight vs untreated area
Method in brief: (§1)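 Seeds sown 0–1 cm deep in puddled, fertilised paddy soil with about 3 cm standing water in a glass greenhouse. Diluted emulsion dropped into the water seven days after seeding at 120 g active ingredient per 10 ares. Herbicidal rate (%) from mean dry weight vs untreated, duplicate, 14 days after treatment.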

[2] = system: broad leaf weeds (Lindernia pyxidaria and Monochoria vaginalis); experiment: as above; settings: 120 g/10a active ingredient, assessed 14 days after treatment, dry weight vs untreated area
Method in brief: as §1

Scirpus juncoides [3] = experiment: as above; settings: 120 g/10a active ingredient, assessed 14 days after treatment, dry weight vs untreated area
Method in brief: as §1

Echinochloa crus-galli [4] = experiment: Test Example 3: herbicidal effect test by treatment of dry field farming soil (one day after seeding); settings: 120 g/10a active ingredient, evaluated 14 days after treatment
Method in brief: (§2)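 Alluvial dry-field soil in pots, top 1 cm mixed with 20 seeds per weed species. One day after seeding, the water-diluted emulsion was sprayed onto the soil surface at 100 L per 10 ares (120 g active ingredient per 10 ares). Duplicate pots; herbicidal rate (%) from plant dry weight versus untreated, 14 days after treatment.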

Amaranthus viridis [5] = experiment: as above; settings: 120 g/10a active ingredient, evaluated 14 days after treatment
Method in brief: as §2

southern crabgrass [6] = experiment: as above; settings: 120 g/10a active ingredient, evaluated 14 days after treatment
Method in brief: as §2

Chenopodium album [7] = experiment: as above; settings: 120 g/10a active ingredient, evaluated 14 days after treatment
Method in brief: as §2

Echinochloa crus-galli [8] = experiment: Test Example 1: herbicidal effect test by treatment of rice paddy soil (immediately after seeding); settings: 120 g/10a active ingredient, dry weight vs untreated area, 14 days after treatment
Method in brief: (§3)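 Paddy soil in pots with compound fertilizer, puddled; 30 seeds per species sown at 0–1 cm, flooded ~3 cm, greenhouse. Water-diluted emulsions dropped onto water immediately after seeding at 120 g active ingredient per 10 ares, duplicate. Herbicidal rate (%) from plant dry weight versus untreated, 14 days after treatment.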

[9] = system: broad leaf weeds (Lindernia pyxidaria and Monochoria vaginalis); experiment: as above; settings: 120 g/10a active ingredient, dry weight vs untreated area, 14 days after treatment
Method in brief: as §3

Scirpus juncoides [10] = experiment: as above; settings: 120 g/10a active ingredient, dry weight vs untreated area, 14 days after treatment
Method in brief: as §3

Echinochloa crus-galli [11] = experiment: Test Example 4: herbicidal effect test by treatment of leave and stem in dry field farming (seven days after seeding); settings: 120 g/10a active ingredient; emulsion sprayed seven days after seeding; evaluated 14 days after treatment
Method in brief: (§4)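 Weeds were seeded at 20 seeds per species into the top 1 cm of alluvial upland soil in pots, then sprayed 7 days after seeding with water-diluted emulsifiable concentrate at 100 L/10 a, giving 120 g active ingredient/10 a. Duplicate pots; herbicidal rate (%) was 14 days post-treatment, from dry weight versus untreated.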

Amaranthus viridis [12] = experiment: as above; settings: 120 g/10a active ingredient; emulsion sprayed seven days after seeding; evaluated 14 days after treatment
Method in brief: as §4

southern crabgrass [13] = experiment: as above; settings: 120 g/10a active ingredient; emulsion sprayed seven days after seeding; evaluated 14 days after treatment
Method in brief: as §4

Chenopodium album [14] = experiment: as above; settings: 120 g/10a active ingredient; emulsion sprayed seven days after seeding; evaluated 14 days after treatment
Method in brief: as §4

Structure (SMILES) | Herbicidal rate (%) Echinochloa crus-galli (Echinochloa crus-galli [1]) | Herbicidal rate (%) Lindernia pyxidaria [2] | Herbicidal rate (%) Monochoria vaginalis [2] | Herbicidal rate (%) Scirpus juncoides (Scirpus juncoides [3]) | herbicidal rate, Echinochloa crus-galli (Echinochloa crus-galli [4]) | herbicidal rate, Amaranthus viridis (Amaranthus viridis [5]) | herbicidal rate, southern crabgrass (southern crabgrass [6]) | herbicidal rate, Chenopodium album (Chenopodium album [7]) | Herbicidal rate (%) Echinochloa crus-galli (Echinochloa crus-galli [8]) | Herbicidal rate (%) Lindernia pyxidaria [9] | Herbicidal rate (%) Monochoria vaginalis [9] | Herbicidal rate (%) Scirpus juncoides (Scirpus juncoides [10]) | herbicidal effect (herbicidal rate), Echinochloa crus-galli (Echinochloa crus-galli [11]) | herbicidal effect (herbicidal rate), Amaranthus viridis (Amaranthus viridis [12]) | herbicidal effect (herbicidal rate), southern crabgrass (southern crabgrass [13]) | herbicidal effect (herbicidal rate), Chenopodium album (Chenopodium album [14])
C=CCOC(=O)N(c1ccccc1Cc1c(C)n(C(C)COC)oc1=O)S(=O)(=O)C(F)(F)F (stereo not shown) [Compound 1-708] | 90% | 90% | 90% | 90% | 90% | 90% | 90% | 90% | 90% | 90% | 90% | 90% | 90% | 40% | 90% | 40%
CCC(c1ccccc1)n1oc(=O)c(Cc2ccccc2N(S(=O)(=O)C(F)(F)F)S(=O)(=O)C(F)(F)F)c1C (stereo not shown) [Compound 1-1038] | 90% | 60% | 80% | 90% | 90% | 0% | 90% | 0% | 90% | 90% | 90% | 90% | 90% | 40% | 60% | 40%
Cc1c(Cc2ccccc2N(S(=O)(=O)C(F)(F)F)S(=O)(=O)C(F)(F)F)c(=O)on1CC[S+](C)[O-] (stereo not shown) [Compound 1-1005] | 90% | 70% | 90% | 90% | 60% | 40% | 40% | 40% | 90% | 60% | 70% | 90% | 60% | 40% | 40% | 40%
Cc1c(Cc2ccccc2N(C(=O)Cc2ccccc2)S(=O)(=O)C(F)(F)F)c(=O)on1C(C)(C)C [Compound 1-503] | 90% | 90% | 90% | 90% | 90% | 90% | 90% | 90% | 90% | 90% | 90% | 90% | 90% | 40% | 90% | 40%
CSCCn1oc(=O)c(Cc2ccccc2N(C(=O)OC(C)C)S(=O)(=O)C(F)(F)F)c1C [Compound 1-652] | 90% | 90% | 90% | 90% | 90% | 90% | 90% | 90% | 90% | 90% | 90% | 90% | 90% | 40% | 90% | 40%
Cc1c(Cc2ccccc2N(S(=O)(=O)C(F)(F)F)S(=O)(=O)C(F)(F)F)c(=O)on1CC1(C)CC1 [Compound 1-993] | 90% | 50% | 60% | 90% | 90% | 40% | 80% | 40% | 100% | 100% | 100% | 100% | 60% | 40% | 40% | 40%
CCS(=O)(=O)N(c1ccccc1Cc1c(C)n(CCSC)oc1=O)S(=O)(=O)C(F)(F)F [Compound 1-916] | 90% | 90% | 90% | 90% | 90% | 90% | 90% | 90% | 90% | 90% | 90% | 90% | 90% | 40% | 90% | 40%
Cc1c(Cc2ccccc2N(S(=O)(=O)C(F)(F)F)S(=O)(=O)C(F)(F)F)c(=O)on1C(c1ccccc1)C(C)C (stereo not shown) [Compound 1-1040] | 100% | 60% | 60% | 70% | 100% | 100% | 100% | 80% | 100% | 100% | 90% | 90% | 90% | 50% | 90% | 40%
COCC(C)n1oc(=O)c(Cc2ccccc2N(C(=O)Oc2ccccc2)S(=O)(=O)C(F)(F)F)c1C (stereo not shown) [Compound 1-765] | 90% | 90% | 90% | 90% | 90% | 90% | 90% | 90% | 90% | 90% | 90% | 90% | 90% | 40% | 90% | 40%
C=CCOC(=O)N(c1ccccc1Cc1c(C)n(CCSC)oc1=O)S(=O)(=O)C(F)(F)F [Compound 1-709] | 90% | 90% | 90% | 90% | 90% | 90% | 90% | 90% | 90% | 90% | 90% | 90% | 90% | 40% | 90% | 40%
